Test results taken from patent publication US11926619B2, “Certain pladienolide compounds and methods of use” (EISAI R&D MANAGEMENT CO., LTD., priority 2018, dated 2024).

Tests used:
[1] = test system: WiDr cells (colon cancer cells; wildtype SF3B1); test: Cell viability assay (CellTiter-Glo, 72 hr), WiDr cells; format: cell-based; details: Homo sapiens; WiDr cells (wildtype SF3B1); read-out: WiDr GI50
Outline: (§1)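 Cells at 2000/well were exposed to 9 compound concentrations (0.1% DMSO) in duplicate or triplicate for 72 hr at 37 °C. ATP was read by CellTiter-Glo against a time-zero plate and DMSO control growth. Percent growth/viability was plotted against concentration to give Emax; negative values indicate lethality.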

[2] = biological target: T1, SF3b complexes (Homo sapiens, UniProt O75533+Q7RTV0); test: Scintillation proximity assay (SPA) with [3H]-labelled pladienolide probe; format: binding; details: wt SF3B1, read-out: SPA (wt SF3B1 cells) IC50
T1 construct: endogenous in cells
Method: Batch immobilization of anti-SF3B1 antibody (MBL) to anti-mouse PVT SPA scintillation beads (PerkinElmer) was prepared as follows: for every 2.5 mg of nuclear extracts, 5 μg anti-SF3B1 antibody and 1.5 mg of beads were mixed in 150 μl PBS. The antibody-bead mixture was incubated for 30 min at RT and centrifuged at 18,000 g for 5 min. 150 μl PBS was used to resuspend every 1.5 mg antibody-bead mixture. The beads were suspended and added to the prepared nuclear extracts. The slurry was incubated for 2 h at 4° C. with gentle mixing. The beads were then collected by centrifuging at 18,000 g for 5 min, and washed twice with PBS+0.1% Triton X-100. After a final centrifugation step, every 1.5 mg of beads was suspended with 150 μl of PBS. The SF3b complexes were tested for [^3H]-labelled pladienolide probe binding ([^3H]-PB), synthesized as previously described (Kotake et al., 2007). 100 μL binding reactions were prepared with 50 μl bead slurry and by adding varying concentrations of PB or PB—OH, and after 30 min pre-incubation, 2.5 nM [^3H]—PB was added. The mixture was incubated for 30 min, and luminescence signals were read using a MicroBeta2 Plate Counter (PerkinElmer). Prism 6 (Graphpad) was used for non-linear regression curve fitting of the data.

[3] = test system: WiDr-R cells (colon cancer cells; chemically-induced SF3B1 R1074H mutant); test: Cell viability assay (CellTiter-Glo, 72 hr), resistant WiDr-R cells (counter-screen); format: cell-based; details: WiDr-R cells (SF3B1 R1074H mutation, resistant); read-out: WiDr-R GI50
Outline: as §1

[4] = test system: Panc 05.04 cells (pancreatic cancer cells; Q699H and K700E mutations in SF3B1); test: Cell viability assay (CellTiter-Glo, 72 hr), Panc 05.04 cells; format: cell-based; details: Panc 05.04 cells (mutant SF3B1); for Emax: maximum achievable response in tested dose range, negative value = cellular lethality, read-out: Panc 05.04 (mt SF3B1 cells) Emax (%); for GI50: read-out: Panc 05.04 (mt SF3B1 cells), GI50
Outline: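 Viability was read as ATP content (CellTiter-Glo) after 72 hr compound exposure of Panc 05.04 cells at 37 °C, nine concentrations, 0.1% DMSO. Percentage growth was referenced to time-zero and vehicle wells and plotted against concentration to obtain Emax; negative Emax denotes cell killing.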

| SMILES | GI50 [1] | IC50 [2] | GI50 [3] | Emax [4] | GI50 [4] |
| --- | --- | --- | --- | --- | --- |
| C/C(=C\C=C\C(C)(C)COC(=O)N1CCCC1)[C@H]1OC(=O)C[C@H](O)CC[C@@](C)(O)[C@@H](OC(=O)N2CCN(C3CCCCCC3)CC2)/C=C/[C@@H]1C | 3.46 nM | 5.14 nM | 221 nM | -79.7% | 4.43 nM |
| C/C(=C\C=C\C(C)c1ccnc(N(C)C)n1)[C@H]1OC(=O)C[C@H](O)CC[C@@](C)(O)[C@@H](OC(=O)N2CCN(C3CCCCCC3)CC2)/C=C/[C@@H]1C (stereo partly shown) | 40.1 nM | 16.1 nM | > 10000 nM | -94.5% | 98.3 nM |
| C/C(=C\C=C\[C@H](C)COC(=O)N1CCCC1)[C@H]1OC(=O)C[C@H](O)CC[C@@](C)(O)[C@@H](OC(=O)N2CCN(C3CCCCCC3)CC2)/C=C/[C@@H]1C | 11.8 nM | 11.6 nM | 862 nM | -93.5% | 11.7 nM |
| CC(=O)O[C@H]1/C=C/[C@H](C)[C@@H](/C(C)=C/C=C/[C@@H](C)COC(=O)N2CCCC2)OC(=O)C[C@H](O)CC[C@@]1(C)O | 4.83 nM | 2.75 nM | > 1000 nM | -94.1% | 20.1 nM |
| C/C(=C\C=C\[C@@H](C)COC(=O)N1CCC[C@H]1CO)[C@H]1OC(=O)C[C@H](O)CC[C@@](C)(O)[C@@H](OC(=O)N2CCN(C)CC2)/C=C/[C@@H]1C | 29.4 nM | 14 nM | > 1000 nM | -77.2% | 20.3 nM |
| C/C(=C\C=C\[C@@H](C)COC(=O)N1CCCC1)[C@H]1OC(=O)C[C@H](O)CC[C@H](C)[C@@H](OC(=O)N2CCN(C)CC2)/C=C/[C@@H]1C | 3.81 nM | 2.96 nM | > 1000 nM | -86% | 1.36 nM |
| C/C(=C\C=C\C(C)c1cnccn1)[C@H]1OC(=O)C[C@H](O)CC[C@@](C)(O)[C@@H](OC(=O)N2CCN(C3CCCCCC3)CC2)/C=C/[C@@H]1C (stereo partly shown) | 31.9 nM | 6.37 nM | > 10000 nM | -93.7% | 22.1 nM |
| C/C(=C\C=C\[C@@H](C)COC(=O)N1CC[C@@H](O)C1)[C@H]1NC(=O)CCCCC[C@@H](OC(=O)N2CCN(C)CC2)/C=C/[C@@H]1C | 376 nM | 267 nM | > 10000 nM | 19.1% | 1180 nM |
| C/C(=C\C=C\[C@@H](C)c1ccccn1)[C@H]1OC(=O)C[C@H](O)CC[C@@](C)(O)[C@@H](OC(=O)N2CCN(C3CCOCC3)CC2)/C=C/[C@@H]1C | 53.1 nM | 8.56 nM | > 1000 nM | -87.7% | 37.2 nM |
| CC(=O)O[C@H]1/C=C/[C@H](C)[C@@H](/C(C)=C/C=C/[C@@H](C)c2ccccn2)OC(=O)C[C@H](O)CC[C@@]1(C)O | 231 nM | 45.1 nM | > 10000 nM | -16.1% | 538 nM |
| C/C(=C\C=C\[C@@H](C)CNC(=O)N1CCCC1)[C@H]1OC(=O)C[C@H](O)CC[C@@](C)(O)[C@@H](OC(=O)N2CCN(C3CCCCCC3)CC2)/C=C/[C@@H]1C | 27.6 nM | 5.24 nM | > 1000 nM | -90.9% | 19.8 nM |
| COC(=O)CC[C@H](C)/C=C/C=C(\C)[C@H]1OC(=O)C[C@H](O)CC[C@@](C)(O)[C@@H](OC(=O)N2CCN(C3CCCCCC3)CC2)/C=C/[C@@H]1C | 103 nM | 4.54 nM | > 1000 nM | -96.9% | 51.3 nM |
| C/C(=C\C=C\[C@@H](C)COC(=O)N1CC=CC1)[C@H]1OC(=O)C[C@H](O)CC[C@@](C)(O)[C@@H](OC(=O)N2CCN(C3CCCCCC3)CC2)/C=C/[C@@H]1C | 22.2 nM | 3.68 nM | > 1000 nM | -89.8% | 3.68 nM |
| C/C(=C\C=C\[C@@H](C)c1ccccn1)[C@H]1OC(=O)C[C@H](O)CC[C@@](C)(O)[C@@H](OC(=O)N2CCOCC2)/C=C/[C@@H]1C | > 1000 nM | 480 nM | > 1000 nM | 35.3% | 2550 nM |
| C/C(=C\C=C\[C@@H](C)COC(=O)N1CCCC1)[C@H]1OC(=O)CCCCC[C@@H](OC(=O)N2CCN(C)CC2)/C=C/[C@@H]1C | 7.84 nM | 3.71 nM | 2440 nM | -90.5% | 6.74 nM |
| C/C(=C\C=C\[C@@H](C)COC(=O)N1CCC[C@H]1CF)[C@H]1OC(=O)C[C@H](O)CC[C@@](C)(O)[C@@H](OC(=O)N2CCN(C3CCCCCC3)CC2)/C=C/[C@@H]1C | 1.24 nM | 4.23 nM | > 1000 nM | -72.7% | 1.75 nM |
| C/C(=C\C=C\[C@@H](C)CNC(=O)N1CCCC1)[C@H]1OC(=O)C[C@H](O)CC[C@@](C)(O)[C@@H](OC(=O)N2CCN(C)CC2)/C=C/[C@@H]1C | 76.6 nM | 7.62 nM | > 1000 nM | -90.4% | 54.1 nM |
| C/C(=C\C=C\C(C)c1ncccn1)[C@H]1OC(=O)C[C@H](O)CC[C@@](C)(O)[C@@H](OC(=O)N2CCN(C3CCCCCC3)CC2)/C=C/[C@@H]1C (stereo partly shown) | 45.9 nM | 11.9 nM | > 1000 nM | -91.6% | 31 nM |
| C/C(=C\C=C\[C@@H](C)COC(=O)N1CC[C@@H](O)C1)[C@H]1OC(=O)CCCCC[C@@H](OC(=O)N2CCN(C)CC2)/C=C/[C@@H]1C | 8.59 nM | 5.42 nM | 2840 nM | -87% | 6.48 nM |
| C/C(=C\C=C\[C@@H](C)COC(=O)N1CC[C@H](F)C1)[C@H]1OC(=O)C[C@H](O)CC[C@@](C)(O)[C@@H](OC(=O)N2CCN(C3CCCCCC3)CC2)/C=C/[C@@H]1C | 4.3 nM | 1.93 nM | > 1000 nM | -79.4% | 1.76 nM |
| C/C(=C\C=C\[C@H](C)c1cccnc1)[C@H]1OC(=O)C[C@H](O)CC[C@@](C)(O)[C@@H](OC(=O)N2CCN(C3CCCCCC3)CC2)/C=C/[C@@H]1C | 29.4 nM | 2.56 nM | > 1000 nM | -94.2% | 20.4 nM |
| C/C(=C\C=C\[C@@H](C)COC(=O)N1CCCC1)[C@H]1OC(=O)C[C@H](O)CC[C@](C)(O)[C@@H](OC(=O)N2CCN(C)CC2)/C=C/[C@@H]1C | 7.12 nM | 5.69 nM | > 1000 nM | -83.7% | 3.14 nM |
| C/C(=C\C=C\[C@@H](C)Cn1cc(C2CC2)nn1)[C@H]1OC(=O)C[C@H](O)CC[C@@](C)(O)[C@@H](OC(=O)N2CCN(C3CCCCCC3)CC2)/C=C/[C@@H]1C | 51.8 nM | 14.1 nM | > 1000 nM | -94.5% | 38.6 nM |
| C/C(=C\C=C\[C@@H](C)COC(=O)N1CCC[C@H]1CO)[C@H]1OC(=O)C[C@H](O)CC[C@@](C)(O)[C@@H](OC(=O)N2CCN(C3CCCCCC3)CC2)/C=C/[C@@H]1C | 2.73 nM | 7.03 nM | 40.1 nM | -70.4% | 2.39 nM |
| CC(=O)O[C@H]1/C=C/[C@H](C)[C@@H](/C(C)=C/C=C/[C@@H](C)COC(=O)N(C)C(C)C)OC(=O)C[C@H](O)CC[C@@]1(C)O | 32.6 nM | 4.85 nM | > 10000 nM | -87.4% | 54.6 nM |
| C/C(=C\C=C\[C@@H](C)COC(=O)N1CCCC1)[C@H]1OC(=O)CCCC[C@@](C)(O)[C@@H](OC(=O)N2CCN(C)CC2)/C=C/[C@@H]1C | 4.92 nM | 1.67 nM | > 1000 nM | -91.4% | 2.38 nM |
